Reference: paper PMC7155171, “Probing the Open Global Health Chemical Diversity Library for Multistage-Active Starting Points for Next-Generation Antimalarials” (ACS Infectious Diseases, 2020)
Read-outs that look alike come from different tables or passages of the source.

Key:
[1] = system: HepG2-A16-CD81 hepatocytes; assay: HepG2 cytotoxicity screening (CellTiter-Glo); conditions: for HepG2 cytotoxicity 12pt dose response: Maximum inhibition (%): 12pt dose response
[2] = system: P. berghei liver stage (PbLuc); assay: P. berghei luciferase liver stage (PbLuc) assay in HepG2-A16-CD81 hepatocytes; assay type: cell-based, Plasmodium berghei; conditions: for Emax: 12pt dose response, maximum inhibition
[3] = system: P. falciparum Dd2 (PfLuc) line expressing firefly luciferase, asexual blood stage; assay: microbe, parasite or virus in culture; assay type: cell-based, Plasmodium falciparum; conditions: Plasmodium falciparum
P. falciparum Dd2 = assay: SYBR green I asexual blood stage proliferation assay (96 h); assay type: cell-based, Plasmodium falciparum; conditions: Plasmodium falciparum, DD2, 11-pt dose response, 96hr
[4] = HepG2 cytotoxicity screening (CellTiter-Glo); conditions: human, uninfected HepG2-A16-CD81 (EGFP) hepatocytes
[5] = target: recombinant firefly luciferase (Photinus pyralis, UniProt P08659); assay: biochemical; conditions: dose response
[6] = Plasmodium berghei, HepG2-A16-CD81, 12pt dose response, read-out: PbLuc 12pt dose response: IC50
[7] = Plasmodium berghei, HepG2-A16-CD81, 48 h

Sequence of recombinant firefly luciferase (P08659 whole entry): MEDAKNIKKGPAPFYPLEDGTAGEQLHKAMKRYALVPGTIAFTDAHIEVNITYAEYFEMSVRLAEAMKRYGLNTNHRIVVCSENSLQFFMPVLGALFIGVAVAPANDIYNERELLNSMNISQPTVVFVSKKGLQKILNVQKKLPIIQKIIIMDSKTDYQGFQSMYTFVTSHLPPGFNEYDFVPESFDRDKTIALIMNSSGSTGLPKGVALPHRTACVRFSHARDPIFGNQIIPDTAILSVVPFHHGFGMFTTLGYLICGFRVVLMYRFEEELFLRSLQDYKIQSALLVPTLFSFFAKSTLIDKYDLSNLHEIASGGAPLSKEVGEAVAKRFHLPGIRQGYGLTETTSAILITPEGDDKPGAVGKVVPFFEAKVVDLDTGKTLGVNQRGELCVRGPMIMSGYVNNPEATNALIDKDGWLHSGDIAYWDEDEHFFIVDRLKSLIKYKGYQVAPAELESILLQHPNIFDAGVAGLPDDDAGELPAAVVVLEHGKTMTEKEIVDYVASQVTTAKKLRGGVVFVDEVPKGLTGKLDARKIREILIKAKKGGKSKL

SMILES | inhibition at 2 µM [4] | also measured
CCc1nc(CN2CCCN(c3ncnc4ccsc34)CC2)no1 [DDD01071387] |  | IC50 ([1]; HepG2-A16-CD81, read-out: HepG2 tox IC50): > 50 µM; IC50 ([2]; Plasmodium berghei, HepG2-A16-CD81, 48 h, 48 h liver stage, HepG2-A16-CD81, read-out: Pbluc (EEF) IC50): 9.87 µM
CCc1cnc(N)nc1NC(C)c1ccc(C)c(C)c1 (stereo not drawn) [DDD01250400] |  | confirmed liver stage activity [2]: confirmed liver stage activity; IC50 ([3]; DD2, read-out: P. falciparum Luciferase ABS 11-pt Reconfirmation Dose Response (48hr): IC50, 11-pt dose response, 48hr): 2.84 µM; IC50 ([3]; DD2, 8-pt dose response, 96hr, read-out: P. falciparum Luciferase ABS 8-pt Reconfirmation Dose Response (96hr): IC50): 1.66 µM; Emax ([3]; DD2, 8-pt dose response, 96hr, read-out: P. falciparum Luciferase ABS 8-pt Reconfirmation Dose Response (96hr): Maximum inhibition (%)): 81%; Emax ([3]; DD2, 11-pt dose response, 48hr, read-out: P. falciparum Luciferase ABS 11-pt Reconfirmation Dose Response (48hr): Maximum inhibition (%)): 94.8%; IC50 ([3]; DD2, 11-pt dose response, 96hr, read-out: P. falciparum Luciferase ABS 11-pt Reconfirmation Dose Response (96hr): IC50): 0.373 µM; Emax ([3]; DD2, 11-pt dose response, 96hr, read-out: P. falciparum Luciferase ABS 11-pt Reconfirmation Dose Response (96hr): Maximum inhibition (%)): 99.6%; IC50 (P. falciparum Dd2; read-out: P. falciparum Sybr Green I ABS 11-pt Reconfirmation Dose Response (96hr): IC50): 4.48 µM; Emax (P. falciparum Dd2; read-out: P. falciparum Sybr Green I ABS 11-pt Reconfirmation Dose Response (96hr): Maximum inhibition (%)): 62.1%
CC(C)c1nn(C)c(Cl)c1CNCC(O)c1cccc(F)c1 (stereo not drawn) [DDD01304823] |  | IC50 ([3]; DD2, read-out: CDD P. falciparum Luciferase ABS 11-pt Reconfirmation Dose Response (48hr): IC50 (μM), 11-pt dose response, 48hr): 3.48 µM; IC50 ([3]; DD2, 8-pt dose response, 96hr, read-out: CDD P. falciparum Luciferase ABS 8-pt Reconfirmation Dose Response (96hr): IC50): 0.58 µM; Emax ([3]; DD2, 8-pt dose response, 96hr, read-out: CDD P. falciparum Luciferase ABS 8-pt Reconfirmation Dose Response (96hr): Maximum inhibition (%)): 92.1%; Emax ([3]; DD2, 11-pt dose response, 48hr, read-out: CDD P. falciparum Luciferase ABS 11-pt Reconfirmation Dose Response (48hr): Maximum inhibition (%)): 89.6%; IC50 ([3]; DD2, 11-pt dose response, 96hr, read-out: CDD P. falciparum Luciferase ABS 11-pt Reconfirmation Dose Response (96hr): IC50): 1.39 µM; Emax ([3]; DD2, 11-pt dose response, 96hr, read-out: CDD P. falciparum Luciferase ABS 11-pt Reconfirmation Dose Response (96hr): Maximum inhibition (%)): 98.7%; IC50 (P. falciparum Dd2; Sybr Green I, read-out: CDD P. falciparum Sybr Green I ABS 11-pt Reconfirmation Dose Response (96hr): IC50): 3.66 µM; Emax (P. falciparum Dd2; Sybr Green I, read-out: CDD P. falciparum Sybr Green I ABS 11-pt Reconfirmation Dose Response (96hr): Maximum inhibition (%)): 92.5%
NC(=O)C1CN(C(=O)Nc2cc(Cl)cc(Cl)c2)CCO1 (stereo not drawn) [UCSD-0586016] | 11.4% | IC50 [4]: 16.9 µM; HepG2 cytotoxicity 12pt dose response: Maximum inhibition (%) [1]: 92.5%; IC50 [2, 6]: 1.39 µM; Emax [2, 7]: 102%
CC(C)NC(=O)CNC(=O)C12CCC(=O)N1c1cc(Cl)ccc1S2 (stereo not drawn) [UCSD-0589377] | 3.84% | 
CCc1nc(CN2CCCN(c3ncnc4ccsc34)CC2)no1 [UCSD-0620395] | 12.5% | IC50 [4]: > 50 µM; HepG2 cytotoxicity 12pt dose response: Maximum inhibition (%) [1]: 49.7%; IC50 [2, 6]: 9.87 µM
c1nc(N2CCCC(Cn3cncn3)C2)c2sccc2n1 (stereo not drawn) [UCSD-0620442] | 1.85% | 
N#Cc1nc(COc2ccc3c(c2)OCO3)oc1NC1CCCCC1 [UCSD-0630877] | 1.44% | 
Cc1nc(C)c(CN2CCOC[C@H](Oc3ccccc3)C2)s1 [UCSD-0784893] | 25.2% | 
Cc1cnc2c(c1NCc1cccnc1)c(=O)n(C)c(=O)n2C [UCSD-0787013] | 5.36% | 
Cc1ccc(CN2CCCC3(CCN(Cc4ccoc4)CC3)C2)cc1 [UCSD-0791105] | -2.23% | IC50 [4]: 43.8 µM; HepG2 cytotoxicity 12pt dose response: Maximum inhibition (%) [1]: 55.5%; IC50 [2, 6]: 7.88 µM; Emax [2, 7]: 99.9%
CCN1C[C@@H]2[C@@H](OC)CCN(C(=O)c3cc(C)nn3CC)[C@@H]2C1 [UCSD-0791117] | -3.65% | 
CCS(=O)(=O)NCC1OCCc2cn(CC3CCOCC3)nc21 (stereo not drawn) [UCSD-0791354] | -4.05% | 
Cn1cnnc1S(=O)(=O)C1CCN(S(=O)(=O)c2ccc(F)c(Cl)c2)CC1 [UCSD-0795178] | 2.47% | 
CCn1nc(C)c2c1cnn2CCNS(=O)(=O)c1cccs1 [UCSD-0797219] | -1.63% | 
CCCNc1cc(-c2c[nH]nc2C2CCN(C(=O)C3CCC3)C2)ccn1 (stereo not drawn) [UCSD-0798526] | 83.5% | 
Cc1nc(NCc2nonc2C)cc(C(C)Cn2nc(C)c(C)c2C)n1 (stereo not drawn) [UCSD-0799497] | 87.2% | inhibition at 10 µM ([2]; Plasmodium berghei, HepG2-A16-CD81, primary screen, 10 uM): 60.2%
CCc1nnc2n1CCN(c1nc(C)cc(N(C)C)n1)C2 [UCSD-0803797] | 5.32% | 
CNC(=O)c1cccnc1NCc1ccc(Cn2ccnc2)cc1 [UCSD-0807977] | 73.6% | 

SMILES | inhibition at 2 µM [4] | also measured
COc1cccc(CN2CCCC2c2ccc[nH]2)c1 (stereo not drawn) [UCSD-0808841] | -1.63% | 
O=C(c1cnc(OCC(F)(F)F)c(Cl)c1)N1CCc2ccc(O)cc2C1 [UCSD-0809130] | -5.64% | 
COCCCC(=O)Nc1cc(Cl)c(Cl)cn1 [UCSD-0809266] | 59.5% | 
Cc1cc(C)c(CCNC(=O)CN2CCCN(C(N)=O)CC2)c(C)c1 [UCSD-0809576] | -4.31% | 
CC(C)(C)n1ncc2c1CCCC2NCc1ccc2c(c1)CCO2 (stereo not drawn) [UCSD-0811334] | 2.05% | 
O=C(NC1CC1)c1cc(NC(=O)N2CCOCC2)ccc1Cl [UCSD-0811531] | 1.26% | 
CCCNC(=O)CN1CCOC(CC)C1 (stereo not drawn) [UCSD-0814421] | -1.44% | 
Clc1cnccc1NCc1cccc(COC2CCOCC2)c1 [UCSD-0814625] | 43.7% | 
CC(C)n1cnnc1C1CCCN(S(=O)(=O)CC2CCCC2)C1 (stereo not drawn) [UCSD-0815907] | 27.3% | 
CS(=O)(=O)CCC(=O)NC1(c2cccc(C(F)(F)F)c2)CCC1 [UCSD-0816629] | -9.29% | 
CC(NCc1cccs1)c1ccc(OCc2nccn2C)cc1 (stereo not drawn) [UCSD-0817286] | -3.54% | 
CCc1nnsc1C(=O)NC1CCN(CCOc2ccc(Br)cc2)CC1 [UCSD-0818165] | 23.1% | 
Cc1cc(Br)cnc1NCCN1CCC(N(C)C)CC1 [UCSD-0818517] | 4.34% | 
CC(C)CC(C)N(C)C(=O)CCn1cccn1 (stereo not drawn) [UCSD-0818578] | -0.31% | 
Cc1nc(C(=O)N2CC[C@@]3(C[C@@H](NS(C)(=O)=O)CCO3)C2)cs1 [UCSD-0821817] | 25.6% | 
c1ccc(OC2COC3(CCN(Cc4ccccn4)CC3)C2)cc1 (stereo not drawn) [UCSD-0822599] | 16.7% | 
CN(Cc1ccncc1)C1COC2(CCN(Cc3nccn3C)CC2)C1 (stereo not drawn) [UCSD-0822929] | 2.08% | 
CN1CCN(CCc2ncnn2-c2ccc3c(c2)OCO3)CC1 [UCSD-0825202] | 8.32% | 
COc1ccc(CN2CCC=C(C(C)NC(C)=O)C2)cc1 (stereo not drawn) [UCSD-0826536] | 6.35% | 

SMILES | inhibition at 2 µM [4] | also measured
OC(c1ccccn1)C1CCN(Cc2cc3n(n2)CCNC3)CC1 (stereo not drawn) [UCSD-0826546] | -15.7% | 
CN1CCC(N(C)CCC(=O)N2CCC(CCc3ccccc3)CC2)C1 (stereo not drawn) [UCSD-0826822] | 18.9% | 
CCc1c(C(=O)N2CCN(C)[C@@H]3CS(=O)(=O)C[C@@H]32)[nH]c2ccccc12 [UCSD-0827053] | -0.18% | 
Cc1nc(NCc2noc(C3CCCO3)n2)c2sccc2n1 (stereo not drawn) [UCSD-0827338] | 37.4% | 
CC(C)(C)c1ncc(C(=O)NCCSc2ccccn2)c(O)n1 [UCSD-0828026] | 27.1% | 
O=C1N(CC2CC2)CCCC1(O)CN1CCc2[nH]ncc2C1 (stereo not drawn) [UCSD-0829471] | 2.23% | 
Cc1ccc(NC(=O)CNC(C)CN2CCCCC2)c(F)c1 (stereo not drawn) [UCSD-0831198] | -1.94% | 
N[C@@H]1CC[C@H](C(=O)NCCn2cc(Cl)cn2)C1 [UCSD-0831589] | -3.85% | 
NCC1CCN(C2CCN(c3ccc(-c4ccco4)cc3)CC2)C1 (stereo not drawn) [UCSD-0833151] | 3.93% | IC50 [4]: 14.1 µM; IC50 [2, 6]: 4.7 µM; Emax [2, 7]: 99.4%
COc1ccc(C(=O)C2CCCN(c3cc(OC)ncn3)C2)c(C)c1 (stereo not drawn) [UCSD-0833269] | 27.4% | 
COc1cc(Oc2ncccc2C(F)(F)F)ccc1CN1CCCC1 [UCSD-0833465] | 1.7% | 
Cc1cc(C)cc(CN2CCN(Cc3cccc(CCN)c3)CC2=O)c1 [UCSD-0834514] | -1.16% | 
Cc1csc2ncnc(N3CCC(Cn4cc(C(C)(C)O)nn4)CC3)c12 [UCSD-0835726] | 4.96% | IC50 [4]: > 25 µM; IC50 [2, 6]: 4.82 µM; Emax [2, 7]: 82.1%; Emax ([5]; maximum inhibition, read-out: rLuc inhibition dose response: Maximum inhibition (%)): 5.67%; IC50 ([5]; read-out: rLuc inhibition dose response: IC50): > 25 µM
CN(C)S(=O)(=O)c1csc(C(=O)N2CCSCC2)c1 [UCSD-0836661] | 3.97% | 
Nc1cc(N2CCC(c3cc(Cc4ccccc4)n[nH]3)CC2)ccn1 [UCSD-0836781] | -2.51% | 
CCS(=O)(=O)N(C)c1ccc(C(=O)N2CCCC(C)C2)cc1 (stereo not drawn) [UCSD-0838984] | 8.06% | 
O=C1NCCN1C1CCN(Cc2nc(-c3ccccc3)no2)CC1 [UCSD-0839728] | -6.19% | 
Cc1nn(C)c(Cl)c1C1CCCN1C(=O)c1ccc(C(N)=O)cn1 (stereo not drawn) [UCSD-0841146] | 26.8% | 
COc1cccc(-n2nnc(C(=O)N3CCN(C)CC3C)c2C)c1 (stereo not drawn) [UCSD-0845525] | 69.9% | 
